Test results taken from paper PMC9570109, “Improved Trimethylangelicin Analogs for Cystic Fibrosis: Design, Synthesis and Preliminary Screening” (International Journal of Molecular Sciences, 2022).

Legend:
Format in all cases: cell-based
[1] = tested on: Salmonella typhimurium TA97A; test: Ames mutagenicity assay, plate incorporation, TA97A
Protocol: (§1) The mutagenicity assay was performed for the test compounds following the plate incorporation method with the histidine-requiring Salmonella typhimurium mutant TA97A, TA98, TA100, and TA1535 strains purchased by Molecular Toxicology Inc. (Boone, NC, USA; moltox.com). All strains (100 µL per plate of fresh overnight cultures) were checked with and without the addition of 0.5 mL of a 5% S9 exogenous metabolic activator (S9 mix). The lyophilized post-mitochondrial supernatant S9 mix (Aroclor 1254-induced, Sprague–Dawley male rat liver in 0.154 M KCl solution), commonly used for the activation of pro-mutagens in mutagenic metabolites (Molecular Toxicology, Inc., Boone, NC, USA), was stored at −80 °C before use. The concentration tested for all the samples were 5, 10, 20, 50, and 100 µL/plate from a stock solution of 500 nM. A fully grown culture of the appropriate tester strain (0.1 mL) was added to 2 mL molten top agar (0.6% agar, 0.6% NaCl, 0.5 mM L-histidine/biotin solution) at 46 °C, together with 0.1 mL of each sample solution at different concentrations, and 0.5 mL S9 mix for assays with metabolic activation. The ingredients were thoroughly mixed and poured onto minimal glucose agar plates (1.5% agar in 2% Vogel–Bonner medium E with 5% glucose solution). DMSO was used as negative a control (100 µL/plate). Positive controls were prepared as follows: 2-aminoanthracene (2 µg/plate) and 2-nitrofluorene (2 µg/plate) for TA 97A, TA98 and TA1535 with and without metabolic activator (S9 mix), respectively; 2-aminoanthracene (2 µg/plate) and sodium azide (2 µg/plate) for TA100, with and without metabolic activator (S9 mix), respectively. The plates were incubated at 37 °C for 72 h and then his+ revertants were checked and counted using a Colony Counter 560 Suntex (Antibioticos, Italy). A sample was considered mutagenic when the observed number of colonies was at least twofold over the spontaneous level of revertants. All determinations were made in triplicate. Statistical analysis: relative standard deviations were calculated using the statistical software STATISTICA 6.0 (StatSoft, Italia srl, Vigonza, Italy). […]
(§2) Salmonella typhimurium TA97A Salmonella typhimurium TA98 Salmonella typhimurium TA100 Salmonella typhimurium 1535 […]
(§3) average SD t/c average SD t/c average SD t/c average SD t/c average SD t/c average SD t/c average SD t/c average SD t/c […]
(§4) *Significant values according to Ames computation (Maron & Ames, 1983); DMSO, C+: negative and positive controls respectively; SD: Standard Deviation; t/c: number of revertant colonies in treated plates/number of revertant colonies in […]

[2] = tested on: Salmonella typhimurium TA98; test: Ames mutagenicity assay, plate incorporation, TA98
Protocol: as §1, §2, §3, §4

[3] = tested on: Salmonella typhimurium TA100; test: Ames mutagenicity assay, plate incorporation, TA100
Protocol: as §1, §2, §3, §4

[4] = tested on: Salmonella typhimurium 1535; test: Ames mutagenicity assay, plate incorporation, TA1535
Protocol: as §1, §2, §3, §4

[5] = +S9, 5 µL/plate of 500 nM stock
[6] = +S9, 10 µL/plate of 500 nM stock
[7] = +S9, 20 µL/plate of 500 nM stock
[8] = +S9, 50 µL/plate of 500 nM stock
[9] = +S9, 100 µL/plate of 500 nM stock
[10] = -S9, 5 µL/plate of 500 nM stock
[11] = -S9, 10 µL/plate of 500 nM stock
[12] = -S9, 20 µL/plate of 500 nM stock
[13] = -S9, 50 µL/plate of 500 nM stock
[14] = -S9, 100 µL/plate of 500 nM stock
[15] = TA98, +S9, 5 µL/plate of 500 nM stock
[16] = TA98, +S9, 10 µL/plate of 500 nM stock
[17] = TA98, +S9, 20 µL/plate of 500 nM stock
[18] = TA98, +S9, 50 µL/plate of 500 nM stock
[19] = TA98, +S9, 100 µL/plate of 500 nM stock
[20] = TA98, -S9, 5 µL/plate of 500 nM stock
[21] = TA98, -S9, 10 µL/plate of 500 nM stock
[22] = TA98, -S9, 20 µL/plate of 500 nM stock
[23] = TA98, -S9, 50 µL/plate of 500 nM stock
[24] = TA98, -S9, 100 µL/plate of 500 nM stock
[25] = TA100, +S9, 5 µL/plate of 500 nM stock
[26] = TA100, +S9, 10 µL/plate of 500 nM stock
[27] = TA100, +S9, 20 µL/plate of 500 nM stock
[28] = TA100, +S9, 50 µL/plate of 500 nM stock
[29] = TA100, +S9, 100 µL/plate of 500 nM stock
[30] = TA100, -S9, 5 µL/plate of 500 nM stock
[31] = TA100, -S9, 10 µL/plate of 500 nM stock
[32] = TA100, -S9, 20 µL/plate of 500 nM stock
[33] = TA100, -S9, 50 µL/plate of 500 nM stock
[34] = TA100, -S9, 100 µL/plate of 500 nM stock
[35] = 1535, +S9, 5 µL/plate of 500 nM stock
[36] = 1535, +S9, 10 µL/plate of 500 nM stock
[37] = 1535, +S9, 20 µL/plate of 500 nM stock
[38] = 1535, +S9, 50 µL/plate of 500 nM stock
[39] = 1535, +S9, 100 µL/plate of 500 nM stock
[40] = 1535, -S9, 5 µL/plate of 500 nM stock
[41] = 1535, -S9, 10 µL/plate of 500 nM stock
[42] = 1535, -S9, 20 µL/plate of 500 nM stock
[43] = 1535, -S9, 50 µL/plate of 500 nM stock
[44] = 1535, -S9, 100 µL/plate of 500 nM stock

SMILES: Cc1cc2c(-c3ccccc3)cc(=O)oc2c2c(C)coc12 [4-PhDMA]
- revertant colonies, average [1, 5]: 87.0
- t/c (revertant colonies treated/untreated plates) [1, 5]: 0.8
- revertant colonies, average [1, 6]: 117.0
- t/c (revertant colonies treated/untreated plates) [1, 6]: 1.1
- revertant colonies, average [1, 7]: 98.0
- t/c (revertant colonies treated/untreated plates) [1, 7]: 0.9
- revertant colonies, average [1, 8]: 94.0
- t/c (revertant colonies treated/untreated plates) [1, 8]: 0.9
- revertant colonies, average [1, 9]: 109.5
- t/c (revertant colonies treated/untreated plates) [1, 9]: 1.0
- revertant colonies, average [1, 10]: 79.5
- t/c (revertant colonies treated/untreated plates) [1, 10]: 1.0
- revertant colonies, average [1, 11]: 82.5
- t/c (revertant colonies treated/untreated plates) [1, 11]: 1.1
- revertant colonies, average [1, 12]: 82.0
- t/c (revertant colonies treated/untreated plates) [1, 12]: 1.1
- revertant colonies, average [1, 13]: 82.5
- t/c (revertant colonies treated/untreated plates) [1, 13]: 1.1
- revertant colonies, average [1, 14]: 82.5
- t/c (revertant colonies treated/untreated plates) [1, 14]: 1.1
- revertant colonies, average [2, 15]: 47.0
- t/c (revertant colonies treated/untreated plates) [2, 15]: 1.0
- revertant colonies, average [2, 16]: 49.0
- t/c (revertant colonies treated/untreated plates) [2, 16]: 1.1
- revertant colonies, average [2, 17]: 52.5
- t/c (revertant colonies treated/untreated plates) [2, 17]: 1.1
- revertant colonies, average [2, 18]: 47.5
- t/c (revertant colonies treated/untreated plates) [2, 18]: 1.0
- revertant colonies, average [2, 19]: 47.5
- t/c (revertant colonies treated/untreated plates) [2, 19]: 1.0
- revertant colonies, average [2, 20]: 39.0
- t/c (revertant colonies treated/untreated plates) [2, 20]: 1.0
- revertant colonies, average [2, 21]: 42.0
- t/c (revertant colonies treated/untreated plates) [2, 21]: 1.1
- revertant colonies, average [2, 22]: 38.5
- t/c (revertant colonies treated/untreated plates) [2, 22]: 1.0
- revertant colonies, average [2, 23]: 41.0
- t/c (revertant colonies treated/untreated plates) [2, 23]: 1.1
- revertant colonies, average [2, 24]: 41.0
- t/c (revertant colonies treated/untreated plates) [2, 24]: 1.1
- revertant colonies, average [3, 25]: 159.5
- t/c (revertant colonies treated/untreated plates) [3, 25]: 0.9
- revertant colonies, average [3, 26]: 193.0
- t/c (revertant colonies treated/untreated plates) [3, 26]: 1.1
- revertant colonies, average [3, 27]: 193.5
- t/c (revertant colonies treated/untreated plates) [3, 27]: 1.1
- revertant colonies, average [3, 28]: 187.5
- t/c (revertant colonies treated/untreated plates) [3, 28]: 1.1
- revertant colonies, average [3, 29]: 197.0
- t/c (revertant colonies treated/untreated plates) [3, 29]: 1.2
- revertant colonies, average [3, 30]: 208.5
- t/c (revertant colonies treated/untreated plates) [3, 30]: 1.1
- revertant colonies, average [3, 31]: 198.5
- t/c (revertant colonies treated/untreated plates) [3, 31]: 1.0
- revertant colonies, average [3, 32]: 207.0
- t/c (revertant colonies treated/untreated plates) [3, 32]: 1.1
- revertant colonies, average [3, 33]: 184.5
- t/c (revertant colonies treated/untreated plates) [3, 33]: 0.9
- revertant colonies, average [3, 34]: 179.0
- t/c (revertant colonies treated/untreated plates) [3, 34]: 0.9
- revertant colonies, average [4, 35]: 10.5
- t/c (revertant colonies treated/untreated plates) [4, 35]: 1.0
- revertant colonies, average [4, 36]: 13.5
- t/c (revertant colonies treated/untreated plates) [4, 36]: 1.3
- revertant colonies, average [4, 37]: 11.0
- t/c (revertant colonies treated/untreated plates) [4, 37]: 1.0
- revertant colonies, average [4, 38]: 10.5
- t/c (revertant colonies treated/untreated plates) [4, 38]: 1.0
- revertant colonies, average [4, 39]: 11.0
- t/c (revertant colonies treated/untreated plates) [4, 39]: 1.0
- revertant colonies, average [4, 40]: 15.0
- t/c (revertant colonies treated/untreated plates) [4, 40]: 1.4
- revertant colonies, average [4, 41]: 13.0
- t/c (revertant colonies treated/untreated plates) [4, 41]: 1.2
- revertant colonies, average [4, 42]: 5.5
- t/c (revertant colonies treated/untreated plates) [4, 42]: 0.5
- revertant colonies, average [4, 43]: 10.0
- t/c (revertant colonies treated/untreated plates) [4, 43]: 0.9
- revertant colonies, average [4, 44]: 7.0
- t/c (revertant colonies treated/untreated plates) [4, 44]: 0.6
